Article PMC9712021 (Advances in Pharmacological and Pharmaceutical Sciences, 2022)

Legend:
[1] = test system: S. cerevisiae strains (SODWT, Sod1Δ, Sod2Δ, Cat1Δ, Sod1/Sod2Δ, Cat1Δ/Sod1Δ); assay: In vivo antioxidant (S. cerevisiae) test, all strains tested; format: cell-based, Saccharomyces cerevisiae; details: all strains and concentrations tested
Source text: (§1) The central disc test was done according to the method presented by Islam et al.. Superoxide dismutase (CuZnSOD-Sod1) is a cytosolic enzyme that is faulty in strain EG118, whereas mitochondrial SOD is faulty in strain EG110 (MnSOD-Sod2). The strain EG133 has both Sod1 and Sod2 defects, while EG223 has a cytosolic catalase deficiency (Cat1). While EG103 is a competent strain that is identical to the wild-type (SODWT), EG is a dual isogenic strain for the Sod1 and Cat1 genes.

[2] = parameters: method as in Oliveira [41]; details: concentrations from 7.83 to 500 μg/mL; ref Oliveira [41]; cited from earlier work
[3] = test system: S. cerevisiae EG118 (Sod1∆); assay: S. cerevisiae central disc test, oxidative damage, strain Sod1∆; format: cell-based, Saccharomyces cerevisiae
Source text: as §1

[4] = test system: S. cerevisiae EG103 (SODWT); assay: S. cerevisiae central disc test, oxidative damage, strain SODWT; format: cell-based, Saccharomyces cerevisiae; parameters: unit not given here
Source text: as §1

[5] = DPPH radical scavenging capacity assay; details: 0.9–14.4 μg/mL; standard Trolox
Method: The DPPH assay was performed according to the method described by Abderrahim et al.. Briefly, a solution containing 300 μL of monoterpenes (0.9–14.4 μg/mL) was added to 2.7 mL of DPPH^• solution (0.5 mM in ethanol). After 30 min, the absorbance was measured using a spectrophotometer (Shimadzu, Japan) at 517 nm.

[6] = test system: S. cerevisiae EG110 (Sod2∆); assay: S. cerevisiae central disc test, oxidative damage, strain Sod2∆; format: cell-based, Saccharomyces cerevisiae
Source text: as §1

[7] = test system: S. cerevisiae EG133 (Sod1∆Sod2∆); assay: S. cerevisiae central disc test, oxidative damage, strain Sod1∆Sod2∆; format: cell-based, Saccharomyces cerevisiae
Source text: as §1

[8] = test system: S. cerevisiae EG (Sod1∆Cat1∆); assay: S. cerevisiae central disc test, oxidative damage, strain Sod1∆Cat1∆; format: cell-based, Saccharomyces cerevisiae
Source text: as §1

[9] = test system: S. cerevisiae EG223 (Cat1∆); assay: S. cerevisiae central disc test, oxidative damage, strain Cat1∆; format: cell-based, Saccharomyces cerevisiae
Source text: as §1

[10] = Hemolytic activity in mice erythrocytes; format: cell-based, Mus musculus; details: male, Swiss albino, mouse, pH 7.4, 37°C, 2 h
Method: This test was performed on adult Swiss albino mouse (Mus musculus) erythrocytes. The mouse was collected from the Central Animal House of the Federal University of Piaui, Brazil. It was allowed free access to standard food and water ad libitum and was kept under controlled lighting (12 h dark/light cycles) at 24 ± 2°C. Blood was collected from the retro-orbital plexus of the mouse (male, 24 gm body weight). Hemolytic activity in mouse erythrocytes was performed, according to Jamialahmadi et al..

## C=CCc1ccc(OC)cc1 [Estragole, estragole]
[1]
  percentage modulation of oxidative damage caused by the stressor H2O2: more than 60%
[2]
  antioxidant capacity: mild antioxidant capacity
[3]; 0.9 μg/mL
  oxidative damage: 2.00 ± 1.41
[3]; 1.8 μg/mL
  oxidative damage: 1.50 ± 0.70
[3]; 7.2 μg/mL
  oxidative damage: 2.00 ± 1.41
[3]; 14.4 μg/mL
  oxidative damage: 2.00 ± 0.54
[3]; 32 μg/mL
  oxidative damage: 2.50 ± 0.70
[3]; 64 μg/mL
  oxidative damage: 2.50 ± 0.70
[3]; 128 μg/mL
  oxidative damage: 2.50 ± 0.70
[3]; 3.6 mg/mL
  oxidative damage: 2.50 ± 0.70
[3]; 256 mg/mL
  oxidative damage: 2.50 ± 0.70
[3]; 500 mg/mL
  oxidative damage: 1.50 ± 0.70
[4]; 0.9 μg/mL
  oxidative damage: 2.00 ± 0.54
[4]; 1.8 μg/mL
  oxidative damage: 1.50 ± 0.70
[4]; 7.2 μg/mL
  oxidative damage: 2.00 ± 1.41
[4]; 14.4 μg/mL
  oxidative damage: 2.50 ± 0.70
[4]; 32 μg/mL
  oxidative damage: 2.00 ± 0.54
[4]; 64 μg/mL
  oxidative damage: 2.00 ± 0.54
[4]; 128 μg/mL
  oxidative damage: 1.50 ± 0.70
[4]; 3.6 mg/mL
  oxidative damage: 1.00 ± 1.41
[4]; 256 mg/mL
  oxidative damage: 3.50 ± 0.70
[4]; 500 mg/mL
  oxidative damage: 1.50 ± 0.70
[5]
  DPPH radical scavenging activity: highest scavenging activity
[6]; 0.9 μg/mL
  oxidative damage: 3.00 ± 1.41
[6]; 1.8 μg/mL
  oxidative damage: 3.50 ± 0.70
[6]; 7.2 μg/mL
  oxidative damage: 2.00 ± 0.54
[6]; 14.4 μg/mL
  oxidative damage: 3.50 ± 0.70
[6]; 32 μg/mL
  oxidative damage: 2.00 ± 0.54
[6]; 64 μg/mL
  oxidative damage: 3.50 ± 0.70
[6]; 128 μg/mL
  oxidative damage: 3.50 ± 0.70
[6]; 3.6 mg/mL
  oxidative damage: 2.00 ± 0.54
[6]; 256 mg/mL
  oxidative damage: 2.50 ± 0.70
[6]; 500 mg/mL
  oxidative damage: 3.00 ± 1.41
[7]; 0.9 μg/mL
  oxidative damage: 3.50 ± 0.70
[7]; 1.8 μg/mL
  oxidative damage: 3.50 ± 0.70
[7]; 7.2 μg/mL
  oxidative damage: 2.50 ± 0.70
[7]; 14.4 μg/mL
  oxidative damage: 3.50 ± 0.70
[7]; 32 μg/mL
  oxidative damage: 2.50 ± 0.70
[7]; 64 μg/mL
  oxidative damage: 1.50 ± 0.70
[7]; 128 μg/mL
  oxidative damage: 3.00 ± 1.41
[7]; 3.6 mg/mL
  oxidative damage: 2.50 ± 0.70
[7]; 256 mg/mL
  oxidative damage: 2.50 ± 2.12
[7]; 500 mg/mL
  oxidative damage: 2.50 ± 0.70
[8]; 0.9 μg/mL
  oxidative damage: 3.50 ± 0.70
[8]; 1.8 μg/mL
  oxidative damage: 4.00 ± 2.82
[8]; 7.2 μg/mL
  oxidative damage: 3.50 ± 0.70
[8]; 14.4 μg/mL
  oxidative damage: 5.00 ± 0.0
[8]; 32 μg/mL
  oxidative damage: 4.50 ± 0.70
[8]; 64 μg/mL
  oxidative damage: 3.00 ± 1.41
[8]; 128 μg/mL
  oxidative damage: 4.50 ± 2.12
[8]; 256 μg/mL
  oxidative damage: 3.00 ± 2.82
[8]; 3.6 mg/mL
  oxidative damage: 4.00 ± 1.41
[8]; 500 mg/mL
  oxidative damage: 3.50 ± 0.70
[9]; 0.9 μg/mL
  oxidative damage: 3.00 ± 1.41
[9]; 1.8 μg/mL
  oxidative damage: 4.50 ± 0.70
[9]; 7.2 μg/mL
  oxidative damage: 1.50 ± 2.12
[9]; 14.4 μg/mL
  oxidative damage: 4.50 ± 2.12
[9]; 32 μg/mL
  oxidative damage: 3.00 ± 1.41
[9]; 64 μg/mL
  oxidative damage: 7.00 ± 1.41^∗
[9]; 128 μg/mL
  oxidative damage: 2.50 ± 0.70
[9]; 3.6 mg/mL
  oxidative damage: 4.00 ± 1.41
[9]; 256 mg/mL
  oxidative damage: 3.00 ± 1.41
[9]; 500 mg/mL
  oxidative damage: 4.50 ± 0.70
[10]; 31.25 μg/mL
  hemolysis at 2 h, 31.25 μg/mL: 1.67 ± 0.35%
[10]; 62.5 μg/mL
  hemolysis at 2 h, 62.5 μg/mL: 3.49 ± 0.26%
[10]; 125 μg/mL
  hemolysis at 2 h, 125 μg/mL: 4.45 ± 0.47%
[10]; 250 μg/mL
  hemolysis at 2 h, 250 μg/mL: 8.21 ± 0.35%
[10]; 500 μg/mL
  hemolysis at 2 h, 500 μg/mL: 10.3 ± 1.35%
